# Measured values taken from paper PMC5218480 (PLoS ONE, 2017).
# Test system: MV-4-11 cells
# Assay: Gene expression microarray analysis (Affymetrix PrimeView) and GSEA
# Type: cell-based, human
# Set-up: RFU PODN (11730768_x_at) / Fold change /veh PODN (11730768_x_at) / RFU LINC00158 (11744669_a_at) / Fold change /veh LINC00158 (11744669_a_at) / RFU DUSP10 (11751237_a_at) / Fold change /veh DUSP10 (11751237_a_at) / RFU ID3 (11757404_x_at) / Fold change /veh ID3 (11757404_x_at) / RFU PLEKHG5 (11737974_s_at) / Fold change /veh PLEKHG5 (11737974_s_at) / RFU LRRC4B (11730491_at) / Fold change /veh LRRC4B (11730491_at) / RFU GIMAP4 (11747438_a_at) / Fold change /veh GIMAP4 (11747438_a_at) / RFU KRT8 (11758183_x_at) / Fold change /veh KRT8 (11758183_x_at) / RFU CNN1 (11734310_a_at) / Fold change /veh CNN1 (11734310_a_at) / RFU VPS37D (11726825_at) / Fold change /veh VPS37D (11726825_at) / RFU C10orf10 (11716522_x_at) / Fold change /veh C10orf10 (11716522_x_at) / RFU KIR2DL2 /// KIR2DL4 /// KIR2DL5A /// KIR2DL5B /// KIR2DS1 /// KIR2DS2 /// KIR2DS3 /// KIR2DS4 /// KIR3DL3 /// KIR3DL3 /// KIR3DS1 (11738374_at) / Fold change /veh KIR2DL2 /// KIR2DL4 /// KIR2DL5A /// KIR2DL5B /// KIR2DS1 /// KIR2DS2 /// KIR2DS3 /// KIR2DS4 /// KIR3DL3 /// KIR3DL3 /// KIR3DS1 (11738374_at) / RFU C1QL1 (11718748_at) / Fold change /veh C1QL1 (11718748_at) / RFU TMPRSS4 (11747572_a_at) / Fold change /veh TMPRSS4 (11747572_a_at) / RFU HAMP (11756126_x_at) / Fold change /veh HAMP (11756126_x_at) / RFU RNFT2 (11725882_a_at) / Fold change /veh RNFT2 (11725882_a_at) / RFU NR4A2 (11747474_a_at) / Fold change /veh NR4A2 (11747474_a_at) / RFU ABCC12 (11746883_a_at) / Fold change /veh ABCC12 (11746883_a_at) / RFU TMEM136 (11760407_x_at) / Fold change /veh TMEM136 (11760407_x_at) / RFU CLDN22 /// WWC2 (11732394_at) / Fold change /veh CLDN22 /// WWC2 (11732394_at) / RFU HLA-DPB1 (11760878_x_at) / Fold change /veh HLA-DPB1 (11760878_x_at) / RFU SPINT1 (11716480_a_at) / Fold change /veh SPINT1 (11716480_a_at) / RFU GAP43 (11754022_s_at) / Fold change /veh GAP43 (11754022_s_at) / RFU A4GNT (11735810_at) / Fold change /veh A4GNT (11735810_at) / RFU PRB3 (11715151_x_at) / Fold change /veh PRB3 (11715151_x_at) / RFU TUBB4B (11761932_at) / Fold change /veh TUBB4B (11761932_at) / RFU CAPN14 (11732068_a_at) / Fold change /veh CAPN14 (11732068_a_at) / RFU TMCC2 (11721928_a_at) / Fold change /veh TMCC2 (11721928_a_at) / RFU IRGQ (11745062_a_at) / Fold change /veh IRGQ (11745062_a_at) / RFU FAM174B (11720279_a_at) / Fold change /veh FAM174B (11720279_a_at) / RFU TMPRSS4 (11748680_a_at) / Fold change /veh TMPRSS4 (11748680_a_at) / RFU FAM212B (11763350_a_at) / Fold change /veh FAM212B (11763350_a_at) / RFU PLEKHG5 (11743358_a_at) / Fold change /veh PLEKHG5 (11743358_a_at) / RFU ZSCAN30 (11745921_a_at) / Fold change /veh ZSCAN30 (11745921_a_at) / RFU CMKLR1 (11741424_a_at) / Fold change /veh CMKLR1 (11741424_a_at) / RFU LOC101060620 /// MAPK8IP1 (11723275_at) / Fold change /veh LOC101060620 /// MAPK8IP1 (11723275_at) / RFU SPTSSB (11747773_x_at) / Fold change /veh SPTSSB (11747773_x_at) / RFU PRSS12 (11739890_at) / Fold change /veh PRSS12 (11739890_at) / RFU BIN1 (11741810_x_at) / Fold change /veh BIN1 (11741810_x_at) / RFU WNT11 (11732464_a_at) / Fold change /veh WNT11 (11732464_a_at) / RFU C10orf10 (11716521_a_at) / Fold change /veh C10orf10 (11716521_a_at) / RFU C5orf56 (11738089_at) / Fold change /veh C5orf56 (11738089_at) / RFU CYB561 (11721691_x_at) / Fold change /veh CYB561 (11721691_x_at) / RFU ANKRD19P (11752326_a_at) / Fold change /veh ANKRD19P (11752326_a_at) / RFU OR2T12 /// OR2T33 /// OR2T8 (11738714_s_at) / Fold change /veh OR2T12 /// OR2T33 /// OR2T8 (11738714_s_at) / RFU VCAN (11748164_a_at) / Fold change /veh VCAN (11748164_a_at) / RFU JSRP1 (11732532_at) / Fold change /veh JSRP1 (11732532_at) / RFU KRTAP10-11 (11738290_x_at) / Fold change /veh KRTAP10-11 (11738290_x_at) / RFU MYO3A (11730013_a_at) / Fold change /veh MYO3A (11730013_a_at) / RFU EBF3 (11725865_a_at) / Fold change /veh EBF3 (11725865_a_at) / RFU CAMK2N1 (11719241_x_at) / Fold change /veh CAMK2N1 (11719241_x_at) / RFU C5orf56 (11738088_a_at) / Fold change /veh C5orf56 (11738088_a_at) / RFU OLFML3 (11715873_a_at) / Fold change /veh OLFML3 (11715873_a_at) / RFU LOC100653217 /// NTM (11731650_a_at) / Fold change /veh LOC100653217 /// NTM (11731650_a_at) / RFU MAPK11 (11762145_a_at) / Fold change /veh MAPK11 (11762145_a_at) / RFU FIZ1 (11724087_x_at) / Fold change /veh FIZ1 (11724087_x_at) / RFU OASL (11726364_x_at) / Fold change /veh OASL (11726364_x_at) / RFU SOX15 (11748057_x_at) / Fold change /veh SOX15 (11748057_x_at) / RFU CD79A (11719716_a_at) / Fold change /veh CD79A (11719716_a_at) / RFU HIST1H1D (11736915_at) / Fold change /veh HIST1H1D (11736915_at) / RFU CASKIN2 (11723855_a_at) / Fold change /veh CASKIN2 (11723855_a_at) / RFU LOC730098 (11760151_x_at) / Fold change /veh LOC730098 (11760151_x_at) / RFU OR4N2 (11742367_at) / Fold change /veh OR4N2 (11742367_at) / RFU PRRT2 (11749266_a_at) / Fold change /veh PRRT2 (11749266_a_at) / RFU SNX32 (11753110_a_at) / Fold change /veh SNX32 (11753110_a_at) / RFU CDHR5 (11726645_a_at) / Fold change /veh CDHR5 (11726645_a_at) / RFU RCAN1 (11760418_a_at) / Fold change /veh RCAN1 (11760418_a_at) / RFU FAM167A (11723789_a_at) / Fold change /veh FAM167A (11723789_a_at) / RFU FAM26E (11764081_at) / Fold change /veh FAM26E (11764081_at) / RFU ISYNA1 (11749810_s_at) / Fold change /veh ISYNA1 (11749810_s_at) / RFU ACY1 (11761880_at) / Fold change /veh ACY1 (11761880_at) / RFU 11764098_at / Fold change /veh 11764098_at / RFU SAMD14 (11745864_x_at) / Fold change /veh SAMD14 (11745864_x_at) / RFU NPB (11741838_a_at) / Fold change /veh NPB (11741838_a_at) / RFU TMPRSS6 (11731388_a_at) / Fold change /veh TMPRSS6 (11731388_a_at) / RFU KRTAP10-2 (11738614_at) / Fold change /veh KRTAP10-2 (11738614_at) / RFU ARHGAP8 /// PRR5-ARHGAP8 (11727945_x_at) / Fold change /veh ARHGAP8 /// PRR5-ARHGAP8 (11727945_x_at) / RFU KRTAP5-7 /// NADSYN1 (11734609_at) / Fold change /veh KRTAP5-7 /// NADSYN1 (11734609_at) / RFU RASL12 (11751679_a_at) / Fold change /veh RASL12 (11751679_a_at) / RFU CDKN2B (11736163_a_at) / Fold change /veh CDKN2B (11736163_a_at) / RFU PRF1 (11729649_at) / Fold change /veh PRF1 (11729649_at) / RFU, ZNF638 /// ZNF638-IT1 / Fold change vs veh, ZNF638 /// ZNF638-IT1 / RFU, PANK3 / Fold change vs veh, PANK3 / RFU, SH3YL1 / Fold change vs veh, SH3YL1 / RFU, ZEB2 / Fold change vs veh, ZEB2 / RFU, NRIP1 / Fold change vs veh, NRIP1 / RFU, PTTG1IP / Fold change vs veh, PTTG1IP / RFU, CAPN2 / Fold change vs veh, CAPN2 / RFU, MED14 / Fold change vs veh, MED14 / RFU, SNORA58 / Fold change vs veh, SNORA58 / RFU, C1orf63 / Fold change vs veh, C1orf63 / RFU, LRRFIP1 / Fold change vs veh, LRRFIP1 / RFU, NDUFAF7 / Fold change vs veh, NDUFAF7 / RFU, SLC12A2 / Fold change vs veh, SLC12A2 / RFU, IBTK / Fold change vs veh, IBTK / RFU, ESF1 / Fold change vs veh, ESF1 / Fold change vs veh, TMEM50B / RFU, TAOK1 / Fold change vs veh, TAOK1 / RFU, ACBD3 / Fold change vs veh, ACBD3 / RFU, TMA16 / Fold change vs veh, TMA16 / RFU, RWDD3 / Fold change vs veh, RWDD3 / RFU, BCAT1 / Fold change vs veh, BCAT1 / RFU, EDEM3 / Fold change vs veh, EDEM3 / RFU, TMEM33 / Fold change vs veh, TMEM33 / RFU, WDR75 / Fold change vs veh, WDR75 / RFU, AHCTF1 / Fold change vs veh, AHCTF1 / RFU, TFRC / Fold change vs veh, TFRC / RFU, ZDHHC17 / Fold change vs veh, ZDHHC17 / RFU, NOM1 / Fold change vs veh, NOM1 / RFU, ARL8B / Fold change vs veh, ARL8B / RFU, ZBTB11 / Fold change vs veh, ZBTB11 / RFU, TAMM41 / Fold change vs veh, TAMM41 / RFU, KIAA1704 /// LOC100996395 / Fold change vs veh, KIAA1704 /// LOC100996395 / RFU, ING1 / Fold change vs veh, ING1 / RFU, TRMT61B / Fold change vs veh, TRMT61B / RFU, FUBP3 / Fold change vs veh, FUBP3 / RFU, TP53 / Fold change vs veh, TP53 / RFU, TNKS2 / Fold change vs veh, TNKS2 / RFU, ZFP14 / Fold change vs veh, ZFP14 / RFU, ACTR2 / Fold change vs veh, ACTR2 / RFU, PPP3R1 / Fold change vs veh, PPP3R1 / RFU, PIK3R1 / Fold change vs veh, PIK3R1 / RFU, HNRNPA1 / Fold change vs veh, HNRNPA1 / RFU, RNF170 / Fold change vs veh, RNF170 / RFU, ZNF28 / Fold change vs veh, ZNF28 / RFU, RNGTT / Fold change vs veh, RNGTT / RFU, OGT / Fold change vs veh, OGT / RFU, BRD1 / Fold change vs veh, BRD1 / RFU, MARS / Fold change vs veh, MARS / RFU, ZNF655 / Fold change vs veh, ZNF655 / RFU, FAHD1 / Fold change vs veh, FAHD1 / RFU, BDP1 / Fold change vs veh, BDP1 / RFU, LRRCC1 / Fold change vs veh, LRRCC1 / RFU, ARID1A / Fold change vs veh, ARID1A / RFU, ZNF146 / Fold change vs veh, ZNF146 / RFU, ZNF330 / Fold change vs veh, ZNF330 / RFU, GPN3 / Fold change vs veh, GPN3 / RFU, C9orf123 / Fold change vs veh, C9orf123 / RFU, N4BP2L2 / Fold change vs veh, N4BP2L2 / RFU, ARFIP1 / Fold change vs veh, ARFIP1 / RFU, FAM179B / Fold change vs veh, FAM179B / RFU, BCL10 / Fold change vs veh, BCL10 / RFU, UHRF1BP1L / Fold change vs veh, UHRF1BP1L / RFU, BET1 / Fold change vs veh, BET1 / RFU, CNOT2 / Fold change vs veh, CNOT2 / RFU, ZNF268 / Fold change vs veh, ZNF268 / Fold change vs veh, ZNF507 / RFU, DGCR2 / Fold change vs veh, DGCR2 / RFU, WDSUB1 / Fold change vs veh, WDSUB1 / Fold change vs veh, HSP90B1 /// MIR3652 / RFU, ADSS / Fold change vs veh, ADSS / RFU, GK / Fold change vs veh, GK / RFU, ZNF148 / Fold change vs veh, ZNF148 / RFU, TAF9 / Fold change vs veh, TAF9 / RFU, SLC1A5 / Fold change vs veh, SLC1A5 / RFU, SLMO2 / Fold change vs veh, SLMO2 / RFU, ABCC4 / Fold change vs veh, ABCC4 / RFU, LOC101060439 /// RAP1B / Fold change vs veh, LOC101060439 /// RAP1B / RFU, RFX7 / Fold change vs veh, RFX7 / RFU, GTPBP10 / Fold change vs veh, GTPBP10 / RFU, CNEP1R1 / Fold change vs veh, CNEP1R1 / RFU, BIVM-ERCC5 /// ERCC5 / Fold change vs veh, BIVM-ERCC5 /// ERCC5 / RFU, ILF3 / Fold change vs veh, ILF3 / RFU 11762660_at / Fold change /veh 11762660_at / RFU VCAN (11757783_s_at) / Fold change /veh VCAN (11757783_s_at) / RFU DDX43 (11728927_at) / Fold change /veh DDX43 (11728927_at) / RFU KRT8 (11758188_x_at) / Fold change /veh KRT8 (11758188_x_at) / RFU NKD1 (11759106_at) / Fold change /veh NKD1 (11759106_at) / RFU SRD5A1 (11742802_a_at) / Fold change /veh SRD5A1 (11742802_a_at) / RFU TPSAB1 /// TPSB2 (11721975_s_at) / Fold change /veh TPSAB1 /// TPSB2 (11721975_s_at) / RFU GSTM3 (11746129_a_at) / Fold change /veh GSTM3 (11746129_a_at) / RFU IL23R (11737362_x_at) / Fold change /veh IL23R (11737362_x_at) / RFU TMEM51 (11727254_a_at) / Fold change /veh TMEM51 (11727254_a_at) / RFU PIWIL2 (11732686_x_at) / Fold change /veh PIWIL2 (11732686_x_at) / RFU ORM1 (11744905_x_at) / Fold change /veh ORM1 (11744905_x_at) / RFU CCDC152 (11743942_at) / Fold change /veh CCDC152 (11743942_at) / RFU ECM1 (11717891_a_at) / Fold change /veh ECM1 (11717891_a_at) / RFU IL23R (11748794_a_at) / Fold change /veh IL23R (11748794_a_at) / RFU TNFAIP8L3 (11732012_x_at) / Fold change /veh TNFAIP8L3 (11732012_x_at) / RFU MBOAT4 (11741988_at) / Fold change /veh MBOAT4 (11741988_at) / RFU 11764193_at / Fold change /veh 11764193_at / RFU TMEM53 (11763286_at) / Fold change /veh TMEM53 (11763286_at) / RFU MAGEB2 (11727129_at) / Fold change /veh MAGEB2 (11727129_at) / RFU TMEM200A (11744735_a_at) / Fold change /veh TMEM200A (11744735_a_at) / RFU CCDC152 (11751479_a_at) / Fold change /veh CCDC152 (11751479_a_at) / RFU FAM211A (11726209_a_at) / Fold change /veh FAM211A (11726209_a_at) / RFU RGS16 (11746705_a_at) / Fold change /veh RGS16 (11746705_a_at) / RFU VCAN (11755009_s_at) / Fold change /veh VCAN (11755009_s_at) / RFU RHOB (11743442_s_at) / Fold change /veh RHOB (11743442_s_at) / RFU RGS16 (11720943_a_at) / Fold change /veh RGS16 (11720943_a_at) / RFU RGS16 (11720944_at) / Fold change /veh RGS16 (11720944_at) / RFU, VPS4B / Fold change vs veh, VPS4B / RFU, CREB1 / Fold change vs veh, CREB1 / RFU, DNAJC13 / Fold change vs veh, DNAJC13 / RFU, GNAQ / Fold change vs veh, GNAQ / RFU, CDK5R1 / Fold change vs veh, CDK5R1 / RFU, ZRANB3 / Fold change vs veh, ZRANB3 / RFU, CUL4A / Fold change vs veh, CUL4A / RFU, CCNY / Fold change vs veh, CCNY / RFU, UFL1 / Fold change vs veh, UFL1 / RFU, COG3 / Fold change vs veh, COG3 / RFU, DIAPH2 / Fold change vs veh, DIAPH2 / RFU, SKA2 / Fold change vs veh, SKA2 / RFU, AFF3 / Fold change vs veh, AFF3 / RFU, LMF1 / Fold change vs veh, LMF1 / RFU, IPO11 / Fold change vs veh, IPO11 / RFU, DFFB / Fold change vs veh, DFFB / RFU, FOXP1 / Fold change vs veh, FOXP1 / RFU, CARD8 / Fold change vs veh, CARD8 / RFU, STRN3 / Fold change vs veh, STRN3 / RFU, ADK / Fold change vs veh, ADK / RFU, RASSF2 / Fold change vs veh, RASSF2 / RFU, WIPF1 / Fold change vs veh, WIPF1 / RFU, LARP1B / Fold change vs veh, LARP1B / RFU, RASA1 / Fold change vs veh, RASA1 / RFU, RB1 / Fold change vs veh, RB1 / RFU, PPFIA1 / Fold change vs veh, PPFIA1 / RFU, MAT2A / Fold change vs veh, MAT2A / RFU, CCT5 / Fold change vs veh, CCT5 / RFU, WDR92 / Fold change vs veh, WDR92 / RFU, CUX1 / Fold change vs veh, CUX1 / RFU, TTC7A / Fold change vs veh, TTC7A / RFU, TMEM135 / Fold change vs veh, TMEM135 / RFU, DEPTOR / Fold change vs veh, DEPTOR / RFU, CPM / Fold change vs veh, CPM / RFU, DNAJB6 / Fold change vs veh, DNAJB6 / RFU, CACNA2D3 / Fold change vs veh, CACNA2D3 / RFU, DTX4 / Fold change vs veh, DTX4 / RFU, TFCP2 / Fold change vs veh, TFCP2 / RFU, GMCL1 /// GMCL1P1 / Fold change vs veh, GMCL1 /// GMCL1P1 / RFU, AEBP2 / Fold change vs veh, AEBP2 / RFU, SNHG1 /// SNORD22 /// SNORD25 /// SNORD26 /// SNORD27 /// SNORD28 /// SNORD29 /// SNORD31 / Fold change vs veh, SNHG1 /// SNORD22 /// SNORD25 /// SNORD26 /// SNORD27 /// SNORD28 /// SNORD29 /// SNORD31 / Fold change (Aza/veh), C12orf56 (ProbeSet 11735607_a_at) / Fold change (ACY-1035/veh), C12orf56 (ProbeSet 11735607_a_at) / Fold change (Aza/veh), FGFR1OP (ProbeSet 11751329_s_at) / Fold change (ACY-1035/veh), FGFR1OP (ProbeSet 11751329_s_at) / Fold change (Aza/veh), VPS36 (ProbeSet 11739960_a_at) / Fold change (ACY-1035/veh), VPS36 (ProbeSet 11739960_a_at) / RFU SYPL1 (11715823_x_at) / Fold change /veh SYPL1 (11715823_x_at) / RFU IGFBP7 (11715501_s_at) / Fold change /veh IGFBP7 (11715501_s_at) / RFU REEP3 (11722064_at) / Fold change /veh REEP3 (11722064_at) / RFU IGLL1 (11728026_x_at) / Fold change /veh IGLL1 (11728026_x_at): dose or concentration left out as unconfirmed
# Details: ProbeSet 11748335_a_at; LIST B
compound,measurement,value
Nc1ncn([C@@H]2O[C@H](CO)[C@@H](O)[C@H]2O)c(=O)n1 [azacitidine],"RFU, SLMO2",144.00 RFU
